Experimental data reported in patent US20220288052A1, “COMPOUND FOR COMBINATION TREATMENT” (priority 2019, published 2022).
Where two headings read alike, the source gives them in different places.

Tests used:
[1] = biological target: Nicotinic α7 (Rattus norvegicus, UniProt Q05941); experiment: In-house nicotinic binding assay, Nicotinic α7
[2] = tested on: brain levels of dopamine (DA); experiment: In vivo microdialysis, DA; parameters: species or system rat
Experimental: The purpose of the present study was to examine, by in vivo microdialysis technique, the effects after administration of compound (I) on brain levels of serotonin, noradrenalin and dopamine within the ventral hippocampus (Hipp), prefrontal cortex (PFC), striatum (STR) and nucleus accumbens (N.Acc) of anaesthetized rats and mice. Compound (I) represents dual acting serotonin/dopamine reuptake inhibitors and was tested in comparison to citalopram a selective serotonin uptake inhibitor. Compound (I) was tested following subcutaneous injections at dose levels between 0.25-30 mg/kg. […] Pre-treatment with the 5-HT1A autoreceptor antagonist WAY-100635 induced a further minor increase of the compound (I) (0.25 mg/kg) induced increase in the PFC level of 5-HT. […]

[3] = biological target: T1, dopamine transporter (DAT) (Mus musculus, UniProt Q61327); experiment: MPTP model of DAT inhibition (striatal dopamine depletion); assay type: in vivo, C57 mouse; parameters: Dopamine Mean ± SEM / DOPAC Mean ± SEM / HVA Mean ± SEM: unit not given here
T1 construct: in vivo DAT transporter occupancy (open bars) in mouse striatum; from tissue; host or cells: mouse striatum (in vivo; C57 mice in the MPTP model)
T1 sequence (Q61327 whole entry): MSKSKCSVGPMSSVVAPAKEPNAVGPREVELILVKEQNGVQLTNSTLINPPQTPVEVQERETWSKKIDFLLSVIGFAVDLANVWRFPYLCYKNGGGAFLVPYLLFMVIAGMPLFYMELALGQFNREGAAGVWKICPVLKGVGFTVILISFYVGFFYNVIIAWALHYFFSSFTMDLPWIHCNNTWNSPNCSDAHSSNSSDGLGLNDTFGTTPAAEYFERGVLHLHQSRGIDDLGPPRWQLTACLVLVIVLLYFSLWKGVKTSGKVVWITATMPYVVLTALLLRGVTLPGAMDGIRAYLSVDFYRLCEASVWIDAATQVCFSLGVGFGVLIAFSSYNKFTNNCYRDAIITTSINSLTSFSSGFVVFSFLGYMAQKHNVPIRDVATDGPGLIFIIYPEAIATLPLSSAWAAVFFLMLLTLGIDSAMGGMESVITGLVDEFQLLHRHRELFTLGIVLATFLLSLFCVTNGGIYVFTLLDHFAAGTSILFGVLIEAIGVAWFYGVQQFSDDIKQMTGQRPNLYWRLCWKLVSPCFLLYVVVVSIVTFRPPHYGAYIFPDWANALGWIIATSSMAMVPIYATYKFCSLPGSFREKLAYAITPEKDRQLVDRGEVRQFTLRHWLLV
Excerpt: In this model compound (I) induced protection against the dopamine depletion induced by the entry of the MPTP metabolite MPP+ into the dopamine terminals of the mouse C57 striatal tissue.

[4] = Linearity after single p.o. dose in mouse; assay type: in vivo; settings: for AUC(0-inf) / bioavailability / half-life: female, NMRI, mouse; for AUC(0-inf) / bioavailability / half-life / Cmax / Tmax: plasma, po; for bioavailability: compared to 10 mg/kg i.v.; for half-life: read-out: T½ (converted); for Cmax / Tmax: female NMRI mouse; for Tmax: 5% Tween 80
[5] = Metabolic stability in liver microsomes, mouse; assay type: in vitro ADME
Experimental: The metabolic stability of compound (I) was tested in liver microsomes from all in house available species at 1 and 5 μM. One metabolite of 16 mass units higher than parent, was found in all incubations, except with human liver microsomes.

[6] = tested on: plasma protein; experiment: Plasma protein binding by equilibrium dialysis, human; assay type: in vitro ADME
Experimental: The plasma protein binding was tested in rat, mouse, dog and human plasma by equilibrium dialysis. The plasma protein binding of this compound is remarkably low (Table 24).

[7] = 5 days p.o. tolerated dose study in female rats (non-GLP); assay type: in vivo, rat; settings: p.o. 5 days, 30, 60, 90 mg/kg
[8] = 14-day repeat-dose study in Wistar rats; assay type: in vivo, rat
Experimental: In a 14-day repeat-dose study 4 groups of 4 male and 4 female Wistar rats were treated daily with either compound (I) at doses of 5, 10 and 15 mg/kg s.c. (Groups 2, 3 and 4), or vehicle, 5% glucose s.c. (Group 1). A satellite group 25 mg/kg s.c. (group5) was conducted accordingly to increase the exposure and efficacy.

[9] = biological target: hERG channels (Homo sapiens, UniProt Q12809); experiment: cell-based
Sequence of hERG channels (Q12809 whole entry): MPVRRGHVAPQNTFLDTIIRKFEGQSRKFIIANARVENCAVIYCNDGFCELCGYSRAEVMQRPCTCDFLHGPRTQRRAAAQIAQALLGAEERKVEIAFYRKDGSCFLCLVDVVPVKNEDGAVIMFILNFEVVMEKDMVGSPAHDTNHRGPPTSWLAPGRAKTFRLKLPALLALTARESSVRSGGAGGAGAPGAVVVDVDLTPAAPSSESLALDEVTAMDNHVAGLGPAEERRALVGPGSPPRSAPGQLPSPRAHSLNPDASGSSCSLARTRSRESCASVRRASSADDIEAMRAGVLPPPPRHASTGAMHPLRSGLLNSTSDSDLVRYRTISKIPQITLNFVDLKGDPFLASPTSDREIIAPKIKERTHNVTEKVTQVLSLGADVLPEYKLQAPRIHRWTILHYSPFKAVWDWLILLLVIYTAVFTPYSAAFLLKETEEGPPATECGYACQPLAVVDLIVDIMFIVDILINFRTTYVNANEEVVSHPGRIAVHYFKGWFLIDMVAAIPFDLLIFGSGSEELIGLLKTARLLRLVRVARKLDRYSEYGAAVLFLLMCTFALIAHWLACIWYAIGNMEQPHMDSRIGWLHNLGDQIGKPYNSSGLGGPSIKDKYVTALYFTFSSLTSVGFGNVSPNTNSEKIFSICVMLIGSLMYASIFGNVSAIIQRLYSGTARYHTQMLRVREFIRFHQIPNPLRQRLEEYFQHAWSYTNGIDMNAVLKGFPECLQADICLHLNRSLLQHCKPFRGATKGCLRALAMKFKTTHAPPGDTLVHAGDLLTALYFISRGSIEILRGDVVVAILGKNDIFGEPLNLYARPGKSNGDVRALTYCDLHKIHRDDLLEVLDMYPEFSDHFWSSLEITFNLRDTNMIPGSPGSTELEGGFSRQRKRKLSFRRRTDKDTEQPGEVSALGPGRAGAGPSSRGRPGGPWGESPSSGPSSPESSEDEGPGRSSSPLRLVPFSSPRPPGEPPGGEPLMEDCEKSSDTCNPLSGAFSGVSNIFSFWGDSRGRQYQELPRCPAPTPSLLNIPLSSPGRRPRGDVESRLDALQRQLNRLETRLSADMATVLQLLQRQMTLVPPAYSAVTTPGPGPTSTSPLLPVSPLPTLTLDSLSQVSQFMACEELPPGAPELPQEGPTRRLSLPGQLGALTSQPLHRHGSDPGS
Experimental: A HEK293 cell line stably expressing Kv11.3 for hERG and KCNE1 (minK) was established. The effect of compound (I) on the amount of current carried by hERG channels was assessed in whole-cell patch clamp experiments. The channels were activated by a voltage protocol designed to simulate a human cardiac action potential.

[10] = 7.5 mg/kg p.o. 0 min + MPTP 25 mg/kg s.c. 60 min
[11] = 15 mg/kg p.o. 0 min + MPTP 25 mg/kg s.c. 60 min
[12] = 30 mg/kg p.o. 0 min + MPTP 25 mg/kg s.c. 60 min
[13] = 15 mg/kg s.c. 14 days (Group 4)
[14] = 25 mg/kg s.c. 14 days (Group 5)

Sequence of Nicotinic α7 (Q05941 23-502): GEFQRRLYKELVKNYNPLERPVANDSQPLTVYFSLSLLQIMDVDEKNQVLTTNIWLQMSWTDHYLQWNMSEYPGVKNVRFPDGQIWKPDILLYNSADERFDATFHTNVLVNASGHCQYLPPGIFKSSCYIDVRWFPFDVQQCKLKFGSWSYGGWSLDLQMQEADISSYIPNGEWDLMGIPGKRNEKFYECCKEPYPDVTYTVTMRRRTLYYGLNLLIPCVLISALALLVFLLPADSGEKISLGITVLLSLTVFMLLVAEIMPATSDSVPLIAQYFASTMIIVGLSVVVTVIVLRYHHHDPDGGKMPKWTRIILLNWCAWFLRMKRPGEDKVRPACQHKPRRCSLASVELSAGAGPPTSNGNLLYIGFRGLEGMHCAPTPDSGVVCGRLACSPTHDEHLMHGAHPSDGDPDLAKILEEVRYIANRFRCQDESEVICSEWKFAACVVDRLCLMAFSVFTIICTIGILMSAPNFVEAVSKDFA

With `O=c1ccc2ccc(O[C@@H]3C[C@H]4CC[C@@H](C3)N4)cc2o1` [Compound (I), exo-7-(8-aza-bicyclo[3.2.1]oct-3-yloxy)-chromen-2-one] the IC50 [1] was > 10 µM, the “DA (AUC0-160 min)” value ([2]; Hippocampus, 3 mg/kg s.c., 3 mg/kg) was 142±36% and the “DA (AUC0-160 min)” value ([2]; N.Acc, 10 mg/kg s.c., 10 mg/kg) was 192±42%. The “DA (AUC0-160 min)” value ([2]; N.Acc, 30 mg/kg s.c., 30 mg/kg) was 604±88%, the “DA (AUC0-160 min)” value ([2]; Pre-frontal cortex, 1 mg/kg s.c., 1 mg/kg) was 132±9% and the “DA (AUC0-160 min)” value ([2]; Pre-frontal cortex, 10 mg/kg s.c., 10 mg/kg) was 211±40%. The “DA (AUC0-160 min)” value ([2]; Pre-frontal cortex, WAY100365 0.1 mg/kg + compound (I) 0.25 mg/kg) was 55 ± 2%, the “DA (AUC0-160 min)” value ([2]; Striatum, 3 mg/kg s.c., 3 mg/kg) was 137±21% and the “DA (AUC0-160 min)” value ([2]; Striatum, 10 mg/kg s.c., 10 mg/kg) was 134±43%. The “Kinetic pattern of DA increase in microdialysis (nucleus accumbens)” value ([2]; rats, 30 mg/kg s.c., compared to bupropion 10 mg/kg s.c. and cocaine 25 mg/kg i.p.) was “slower kinetic pattern”, the “DOPAC Mean ± SEM” value [3, 10] was 1 ± 0.2 and the “Dopamine Mean ± SEM” value [3, 10] was 6.3 ± 1.1. For the same compound, the “HVA Mean ± SEM” value [3, 10] was 0.7 ± 0.1, the “DOPAC Mean ± SEM” value [3, 11] was 1.7 ± 0.1^ and the “Dopamine Mean ± SEM” value [3, 11] was 12.5 ± 0.7. The “HVA Mean ± SEM” value [3, 11] was 1 ± 0.1, the “Protection against MPTP-induced dopamine depletion” value ([3]; 15 mg/kg, C57 mouse striatal tissue) was “approximately 90%” and the “DOPAC Mean ± SEM” value [3, 12] was 2.1 ± 0.2^. For the same compound, the “Dopamine Mean ± SEM” value [3, 12] was 14.7 ± 1.2, the “HVA Mean ± SEM” value [3, 12] was 1.2 ± 0.1 and the AUC(0-inf) ([4]; 30 mg/kg p.o.) was 14300 ng·h/mL. The bioavailability ([4]; 30 mg/kg p.o.) was 206%, the half-life ([4]; 30 mg/kg p.o.) was 5.1 h and the AUC(0-inf) ([4]; 60 mg/kg p.o.) was 34700 ng·h/mL. For the same compound, the bioavailability ([4]; 60 mg/kg p.o.) was 250%, the half-life ([4]; 60 mg/kg p.o.) was 6.1 h and the “Linearity of kinetics (AUC versus dose)” value ([4]; mice, relatively high doses p.o., single dose) was “tendency to sub-linear kinetics”. It also gave a Cmax ([4]; 30 mg/kg p.o.) of 3080 ng/mL, a Tmax ([4]; 30 mg/kg p.o.) of 0.5 h and a Cmax ([4]; 60 mg/kg p.o.) of 4150 ng/mL. For the same compound, the Tmax ([4]; 60 mg/kg p.o.) was 0.5 h, the “Stability at 1 μM” value [5] was 89% and the “Stability at 5 μM” value [5] was 100%. For the same compound, the fraction unbound at 2710 ng/ml [6] was 0.714, the Activity [7] was “increased activity” and the Body weight gain [7] was “no changes in body weight gain”. For the same compound, the Activity [8, 13] was “increased activity in both males and females”, the Body weight gain [8, 13] was “No changes in body weight gain were observed in the female rats, but a tendency to increased bodyweight in the group 4 males” and the Relative liver weights [8, 13] was “reduced in group 4 females and increased in group 4 males”. The Activity [8, 14] was “increased activity in both male and female”, the Body weight [8, 14] was “minimal decreased body weight” and the Liver weight [8, 14] was “No changes in liver weight”. The “Macroscopic findings at termination” value ([8]; s.c. 14 days) was “no treatment-related macroscopic findings” and the Ki [9] was > 10 µM.
